Measurements from publication PMC10962963 (Proceedings of the National Academy of Sciences of the …, 2024).

Experiments:
[1] = target: T1, polycystin-2 (PC2, TRPP2), PC2_F604P (Homo sapiens, UniProt Q13563, F604P); test: cryo-EM structure; type: cell-based
T1 sequence (Q13563 185-719 F604P): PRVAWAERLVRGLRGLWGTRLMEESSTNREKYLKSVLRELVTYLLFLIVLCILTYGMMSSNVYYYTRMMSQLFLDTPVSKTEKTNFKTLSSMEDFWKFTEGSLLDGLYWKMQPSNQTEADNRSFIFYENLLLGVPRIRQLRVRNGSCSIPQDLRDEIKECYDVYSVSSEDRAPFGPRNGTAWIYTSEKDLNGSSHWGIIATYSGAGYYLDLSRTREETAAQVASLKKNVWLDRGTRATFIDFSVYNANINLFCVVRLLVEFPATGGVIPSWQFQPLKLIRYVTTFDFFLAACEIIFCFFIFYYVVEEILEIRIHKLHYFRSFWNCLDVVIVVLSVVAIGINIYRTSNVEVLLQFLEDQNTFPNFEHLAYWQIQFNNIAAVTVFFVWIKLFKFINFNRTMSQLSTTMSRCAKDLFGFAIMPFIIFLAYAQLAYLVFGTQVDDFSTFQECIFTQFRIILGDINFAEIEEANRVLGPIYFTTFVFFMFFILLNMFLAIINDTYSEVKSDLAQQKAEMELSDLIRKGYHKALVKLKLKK

cryo-EM structure = target: the molecule itself; test: cryo-EM structure

Molecule	EC50 [1] [µM]	binding result (cryo-EM structure)
CC1CC(C)(C)N(C(=O)CN2C(=O)c3ccccc3C2=O)c2ccccc21 (centres unmarked) [ML-SA1]	5.2	
truncated PC2_F604P protein containing the fragment Pro185-Lys719 (domain or fragment, human, UniProt Q13563 185-719, looked up) PRVAWAERLVRGLRGLWGTRLMEESSTNREKYLKSVLRELVTYLLFLIVLCILTYGMMSSNVYYYTRMMSQLFLDTPVSKTEKTNFKTLSSMEDFWKFTEGSLLDGLYWKMQPSNQTEADNRSFIFYENLLLGVPRIRQLRVRNGSCSIPQDLRDEIKECYDVYSVSSEDRAPFGPRNGTAWIYTSEKDLNGSSHWGIIATYSGAGYYLDLSRTREETAAQVASLKKNVWLDRGTRATFIDFSVYNANINLFCVVRLLVEFPATGGVIPSWQFQPLKLIRYVTTFDFFLAACEIIFCFFIFYYVVEEILEIRIHKLHYFRSFWNCLDVVIVVLSVVAIGINIYRTSNVEVLLQFLEDQNTFPNFEHLAYWQIQFNNIAAVTVFFVWIKLFKFINFNRTMSQLSTTMSRCAKDLFGFAIMPFIIFLAYAQLAYLVFGTQVDDFSTFQECIFTQFRIILGDINFAEIEEANRVLGPIYFTTFVFFMFFILLNMFLAIINDTYSEVKSDLAQQKAEMELSDLIRKGYHKALVKLKLKK		binds
